Assay results from PubChem BioAssay AID248 (DTP/NCI, 2004).
Values joined by “and” are separate entries in the source; they are usually repeats but may differ in a detail not shown here. Equal entries are not always repeated. Inconclusive results and toxic doses are left out.

Tested on: L1210 leukemia ip in BDF1 mice, survival T/C
Assay: NCI In Vivo Anticancer Drug Screen. Data for tumor model L1210 Leukemia (intraperitoneal) in B6D2F1 (BDF1) mice
Details: endpoint: mean survival time, higher = longer survival
Method in brief: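 Each compound was tested against a transplantable tumor grown in mice. The endpoint was survival, with treated animals benchmarked against vehicle controls as a simple ratio.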

[1] = dose: 100.0 mg/kg/injection, schedule: Q01DX001 (ip), vehicle: carboxymethylcellulose (CMC)
[2] = dose: 200.0 mg/kg/injection, schedule: Q01DX001 (ip), vehicle: carboxymethylcellulose (CMC)
[3] = dose: 100.0 mg/kg/injection, schedule: Q04DX003 (ip), vehicle: Klucel (hydroxypropylcellulose) (HPC)
[4] = dose: 200.0 mg/kg/injection, schedule: Q04DX003 (ip), vehicle: Klucel (hydroxypropylcellulose) (HPC)
[5] = dose: 400.0 mg/kg/injection, schedule: Q04DX003 (ip), vehicle: Klucel (hydroxypropylcellulose) (HPC)
[6] = dose: 100.0 mg/kg/injection, schedule: Q01DX001 (ip), vehicle: Klucel (hydroxypropylcellulose) (HPC)
[7] = dose: 200.0 mg/kg/injection, schedule: Q01DX001 (ip), vehicle: Klucel (hydroxypropylcellulose) (HPC)
[8] = dose: 400.0 mg/kg/injection, schedule: Q01DX001 (ip), vehicle: Klucel (hydroxypropylcellulose) (HPC)
[9] = dose: 100.0 mg/kg/injection, schedule: Q01DX001 (ip), vehicle: saline with Tween-80
[10] = dose: 100.0 mg/kg/injection, schedule: Q01DX001 (ip), vehicle: saline
[11] = dose: 75.0 mg/kg/injection, schedule: Q01DX001 (ip), vehicle: carboxymethylcellulose (CMC)
[12] = dose: 150.0 mg/kg/injection, schedule: Q01DX001 (ip), vehicle: carboxymethylcellulose (CMC)
[13] = dose: 100.0 mg/kg/injection, schedule: Q04DX003 (ip), vehicle: saline with Tween-80
[14] = dose: 200.0 mg/kg/injection, schedule: Q04DX003 (ip), vehicle: saline with Tween-80
[15] = dose: 400.0 mg/kg/injection, schedule: Q04DX003 (ip), vehicle: saline with Tween-80
[16] = dose: 100.0 mg/kg/injection, schedule: Q01DX009 (ip), vehicle: Klucel (hydroxypropylcellulose) (HPC)
[17] = dose: 100.0 mg/kg/injection, schedule: Q04DX003 (ip), vehicle: saline
[18] = dose: 200.0 mg/kg/injection, schedule: Q01DX009 (ip), vehicle: Klucel (hydroxypropylcellulose) (HPC)
[19] = dose: 200.0 mg/kg/injection, schedule: Q04DX003 (ip), vehicle: saline
[20] = dose: 400.0 mg/kg/injection, schedule: Q01DX009 (ip), vehicle: Klucel (hydroxypropylcellulose) (HPC)
[21] = dose: 400.0 mg/kg/injection, schedule: Q04DX003 (ip), vehicle: saline
[22] = dose: 400.0 mg/kg/injection, schedule: Q01DX001 (ip), vehicle: carboxymethylcellulose (CMC)

SMILES: ClC1=C(Cl)C(Cl)(Cl)C2C1C1C(Cl)=C(Cl)C(Cl)(Cl)C1C1C2C(Cl)=C(Cl)C1(Cl)Cl (stereo not given)
- T/C (dose: 100.0 mg/kg/injection, schedule: Q01DX001 (ip), vehicle: gum acacia): 95 % of control
- T/C (dose: 100.0 mg/kg/injection, schedule: Q01DX009 (ip), vehicle: gum acacia): 92 % of control
- T/C (dose: 200.0 mg/kg/injection, schedule: Q01DX001 (ip), vehicle: gum acacia): 88 % of control
- T/C (dose: 200.0 mg/kg/injection, schedule: Q01DX009 (ip), vehicle: gum acacia): 94 % of control
- T/C (dose: 400.0 mg/kg/injection, schedule: Q01DX001 (ip), vehicle: gum acacia): 92 % of control
- T/C (dose: 400.0 mg/kg/injection, schedule: Q01DX009 (ip), vehicle: gum acacia): 93 % of control

SMILES: C/C=C(C)/C=N/Nc1nnc(N/N=C/C(C)=C/C)c2ccccc12
- T/C (dose: 50.0 mg/kg/injection, schedule: Q01DX001 (ip), vehicle: carboxymethylcellulose (CMC)): 95 % of control
- T/C [1]: 95 % of control
- T/C [2]: 103 % of control

SMILES: COc1ccc(C(=O)CC(C)C(=O)O)c(O)c1C (stereo not given)
- T/C [3]: 95 % of control
- T/C [4]: 98 % of control
- T/C [5]: 96 % of control

SMILES: O=C(O)CCC(=O)O.[Ag]
- T/C (dose: 12.5 mg/kg/injection, schedule: Q04DX003 (ip), vehicle: saline with Tween-80): 93 % of control
- T/C (dose: 25.0 mg/kg/injection, schedule: Q01DX009 (ip), vehicle: acetone): 86 % of control
- T/C (dose: 25.0 mg/kg/injection, schedule: Q04DX003 (ip), vehicle: saline with Tween-80): 95 % of control

SMILES: CC(C)(C)C1=CC(=O)C=C(C(C)(C)C)C1=O
- T/C [6]: 89 % of control
- T/C [7]: 92 % of control
- T/C [4]: 87 % of control
- T/C [8]: 100 % of control
- T/C [5]: 89 % of control

SMILES: O=C1NC(=O)c2cccc3cccc1c23
- T/C [9]: 98 % of control
- T/C (dose: 200.0 mg/kg/injection, schedule: Q01DX001 (ip), vehicle: saline with Tween-80): 102 % of control
- T/C (dose: 400.0 mg/kg/injection, schedule: Q01DX001 (ip), vehicle: saline with Tween-80): 102 % of control

SMILES: CN(C)c1ccc2nc3ccc(=[N+](C)C)cc-3sc2c1
- T/C (dose: 5.0 mg/kg/injection, schedule: Q01DX Z (ip), vehicle: carboxymethylcellulose (CMC)): 93 % of control and 90 % of control
- T/C (dose: 10.0 mg/kg/injection, schedule: Q01DX Z (ip), vehicle: carboxymethylcellulose (CMC)): 100 % of control and 92 % of control
- T/C (dose: 12.5 mg/kg/injection, schedule: Q01DX009 (ip), vehicle: saline): 107 % of control
- T/C (dose: 20.0 mg/kg/injection, schedule: Q01DX Z (ip), vehicle: carboxymethylcellulose (CMC)): 98 % of control and 92 % of control
- T/C (dose: 25.0 mg/kg/injection, schedule: Q01DX001 (ip), vehicle: saline): 102 % of control
- T/C (dose: 25.0 mg/kg/injection, schedule: Q01DX009 (ip), vehicle: saline): 94 % of control
- T/C (dose: 40.0 mg/kg/injection, schedule: Q01DX Z (ip), vehicle: carboxymethylcellulose (CMC)): 105 % of control
- T/C (dose: 50.0 mg/kg/injection, schedule: Q01DX001 (ip), vehicle: saline): 97 % of control
- T/C (dose: 50.0 mg/kg/injection, schedule: Q01DX009 (ip), vehicle: saline): 103 % of control
- T/C [10]: 108 % of control

SMILES: Cc1cccc(NC(=O)N(C)N)c1
- T/C [11]: 96 % of control
- T/C [12]: 104 % of control

SMILES: COc1ccc(CCS(=O)(=O)N=[N+]=[N-])cc1
- T/C [13]: 104 % of control
- T/C [14]: 116 % of control
- T/C [15]: 112 % of control

SMILES: C/C(=N\O)C(=O)c1ccccc1
- T/C [16]: 98 % of control
- T/C [3]: 107 % of control
- T/C [17]: 103 % of control
- T/C [18]: 100 % of control
- T/C [4]: 100 % of control
- T/C [19]: 107 % of control
- T/C [20]: 93 % of control
- T/C [5]: 104 % of control
- T/C [21]: 108 % of control

SMILES: O=C(CCCCC(=O)N(CCO)CCO)N(CCO)CCO
- T/C [17]: 102 % of control
- T/C [19]: 100 % of control
- T/C [21]: 102 % of control

SMILES: CCc1ccc(-n2cnc3c(=O)[nH]c(N)nc32)cc1
- T/C (dose: 25.0 mg/kg/injection, schedule: Q01DX001 (ip), vehicle: saline with Tween-80): 86 % of control
- T/C (dose: 50.0 mg/kg/injection, schedule: Q01DX001 (ip), vehicle: saline with Tween-80): 88 % of control
- T/C [9]: 91 % of control

SMILES: O=C(O)C1C2CCC(C2)C1C(=O)O (stereo not given)
- T/C [13]: 90 % of control
- T/C [17]: 100 % of control
- T/C [14]: 98 % of control
- T/C [19]: 100 % of control
- T/C [15]: 102 % of control
- T/C [21]: 105 % of control

SMILES: COC(=O)C1CCC(NC(=O)N(CCCl)N=O)CC1 (stereo not given)
- T/C (dose: 13.0 mg/kg/injection, schedule: Q01DX001 (ip), vehicle: Klucel (hydroxypropylcellulose) (HPC)): 212 % of control and 188 % of control
- T/C (dose: 20.0 mg/kg/injection, schedule: Q01DX001 (ip), vehicle: Klucel (hydroxypropylcellulose) (HPC)): 270 % of control and 283 % of control
- T/C (dose: 30.0 mg/kg/injection, schedule: Q01DX001 (ip), vehicle: Klucel (hydroxypropylcellulose) (HPC)): 283 % of control
- T/C (dose: 44.0 mg/kg/injection, schedule: Q01DX001 (ip), vehicle: Klucel (hydroxypropylcellulose) (HPC)): 248 % of control and 282 % of control
- T/C (dose: 67.0 mg/kg/injection, schedule: Q01DX001 (ip), vehicle: Klucel (hydroxypropylcellulose) (HPC)): 266 % of control
- T/C [6]: 104 % of control

SMILES: CCCCNC(=O)c1c(Cl)c(Cl)c(Cl)c(Cl)c1C(=O)O
- T/C (dose: 100.0 mg/kg/injection, schedule: Q04DX002 (ip), vehicle: saline with Tween-80): 97 % of control
- T/C (dose: 200.0 mg/kg/injection, schedule: Q04DX002 (ip), vehicle: saline with Tween-80): 90 % of control

SMILES: S=c1c2[nH]cnc2ncn1C1CCCCC1
- T/C (dose: 4.4 mg/kg/injection, schedule: Q01DX009 (ip), vehicle: saline with Tween-80): 96 % of control
- T/C (dose: 6.7 mg/kg/injection, schedule: Q01DX009 (ip), vehicle: saline with Tween-80): 102 % of control
- T/C (dose: 10.0 mg/kg/injection, schedule: Q01DX009 (ip), vehicle: saline with Tween-80): 90 % of control
- T/C (dose: 15.0 mg/kg/injection, schedule: Q01DX009 (ip), vehicle: saline with Tween-80): 95 % of control

SMILES: CCC(CC)NC(CC)CO (stereo not given)
- T/C [11]: 101 % of control
- T/C [12]: 100 % of control

SMILES: O=C(O)/C=C\C(=O)NCCCNC(=O)/C=C\C(=O)O
- T/C [1]: 101 % of control
- T/C [2]: 96 % of control
- T/C [22]: 93 % of control

SMILES: C[Si](C)(CCl)c1ccccc1
- T/C [17]: 107 % of control
- T/C [19]: 105 % of control
- T/C [21]: 100 % of control

SMILES: CC(=O)OC1C(COS(=O)(=O)c2ccc(C)cc2)OCOC(COS(=O)(=O)c2ccc(C)cc2)C1OC(C)=O (stereo not given)
- T/C [6]: 100 % of control
- T/C [7]: 93 % of control
- T/C [8]: 90 % of control

SMILES: CCCCC(=O)N/N=C/c1cc(OCC)c(OCC)cc1OCC
- T/C [1]: 96 % of control
- T/C [2]: 98 % of control
- T/C [22]: 91 % of control

SMILES: CCOC(=O)c1cc(OCC)c2c(ccc3cc(OC)ccc32)n1
- T/C [16]: 96 % of control
- T/C [18]: 94 % of control
- T/C [20]: 93 % of control

SMILES: c1ccc([CH2][Sn]([c]2ccccc2)([c]2ccccc2)[c]2ccccc2)cc1
- T/C (dose: 50.0 mg/kg/injection, schedule: Q01DX009 (ip), vehicle: Klucel (hydroxypropylcellulose) (HPC)): 100 % of control
- T/C [16]: 104 % of control
- T/C [3]: 101 % of control
- T/C [18]: 98 % of control
- T/C [4]: 98 % of control
- T/C [5]: 101 % of control

SMILES: COc1cc2c(cc1OC)C(NNC(C)=O)CCCC2 (stereo not given)
- T/C [10]: 97 % of control
- T/C (dose: 200.0 mg/kg/injection, schedule: Q01DX001 (ip), vehicle: saline): 97 % of control
- T/C (dose: 400.0 mg/kg/injection, schedule: Q01DX001 (ip), vehicle: saline): 103 % of control

SMILES: C#CCCCCCCC#CCCCCCCC#C
- T/C (dose: 100.0 mg/kg/injection, schedule: Q04DX003 (ip), vehicle: acetone): 100 % of control
- T/C (dose: 200.0 mg/kg/injection, schedule: Q04DX003 (ip), vehicle: acetone): 110 % of control

SMILES: C[n+]1ccccc1CCC(=O)Nc1ccccc1
- T/C (dose: 100.0 mg/kg/injection, schedule: Q01DX009 (ip), vehicle: saline with Tween-80): 87 % of control
